ChEMBL document CHEMBL2069167, “Synthesis and structure-activity relationship of (1-halo-2-naphthyl) carbamate-based inhibitors of KIAA1363 (NCEH1/AADACL1)” (Bioorg Med Chem Lett, 2012)

Assays:
[1] = molecular target: T1, Neutral cholesterol ester hydrolase 1 (Homo sapiens, UniProt Q6PIU2); assay: Inhibition of human KIAA1363 expressed in 293T/17 cells using 2-thioacetyl MAGE as substrate preincubated for 20 mins measured after 1 hr; type: cell-based
T1 sequence (Q6PIU2 whole entry): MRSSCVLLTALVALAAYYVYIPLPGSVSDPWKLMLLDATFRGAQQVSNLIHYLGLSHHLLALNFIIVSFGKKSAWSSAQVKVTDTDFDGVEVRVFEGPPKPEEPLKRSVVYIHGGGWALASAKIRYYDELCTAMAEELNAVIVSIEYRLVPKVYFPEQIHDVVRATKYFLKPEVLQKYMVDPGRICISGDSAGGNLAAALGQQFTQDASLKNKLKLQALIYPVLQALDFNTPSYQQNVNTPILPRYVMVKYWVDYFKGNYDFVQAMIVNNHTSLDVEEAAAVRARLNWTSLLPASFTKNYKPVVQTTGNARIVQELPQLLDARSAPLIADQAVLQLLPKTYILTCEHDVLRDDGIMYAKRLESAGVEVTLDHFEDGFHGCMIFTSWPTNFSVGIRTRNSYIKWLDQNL

Mus musculus [2] = assay: Inhibition of KIAA1363 in tumor of SCID mouse xenografted with human SK-OV-3 cells at 100 mg/kg, po after 2 hrs by fluorescence assay; type: functional; conditions: SK-OV-3, 2 h
Mus musculus [3] = assay: Inhibition of KIAA1363 in tumor of SCID mouse xenografted with human SK-OV-3 cells at 100 mg/kg, ip after 2 hrs by fluorescence assay; type: functional; conditions: SK-OV-3, ip, route intraperitoneal
Mus musculus [4] = assay: Inhibition of KIAA1363 in heart of SCID mouse at 100 mg/kg, ip after 2 hrs by fluorescence assay; type: functional; conditions: route intraperitoneal

SMILES	IC50 [1]	inhibition in vivo at 100 mg/kg (Mus musculus [2])	also measured
CN(C)C(=O)Oc1ccc2ccccc2c1 [NAPHTHALEN-2-YL DIMETHYLCARBAMATE]	> 100 µM		
CN(C)C(=O)Oc1ccc2ccccc2c1Cl	1.1 µM		
CN(C)C(=O)Oc1ccc2cc(Br)ccc2c1Br		18%	
CN(C)C(=O)Oc1ccccc1Br	> 100 µM		
CCCc1ccc2c(Br)c(OC(=O)N(C)C)ccc2c1		22%	inhibition in vivo at 100 mg/kg (Mus musculus [3]): 64%; inhibition in vivo at 100 mg/kg (Mus musculus [4]): 66%
CN(C)C(=O)Oc1ccc2cc(C#N)ccc2c1Br		14%	
CN(C)C(=O)Oc1ccc2ccccc2c1C#N	> 100 µM		
